# Reference: PubChem BioAssay (NCI)
#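 Assay format: 96-well plates, 48-hour exposure. Here, GI50 denotes the concentration required for 50% inhibition of growth. TGI: concentration producing complete growth inhibition.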
# Tests used:
# Assay in all cases: DTP human tumour cell line panel, 48 h
# 786-0 renal = test system: 786-0 renal
# NCI-H23 lung = test system: NCI-H23 lung
# CAKI-1 renal = test system: CAKI-1 renal
# A498 renal = test system: A498 renal
# SN12C renal = test system: SN12C renal
# HCT-116 colon = test system: HCT-116 colon
# A549 NSCLC = test system: A549 NSCLC
# NCI-H522 lung = test system: NCI-H522 lung
# LOX IMVI melanoma = test system: LOX IMVI melanoma
structure (smiles),measurement,setting,value
C=C1CC2OC(=O)C(=C)C2C(O)C2C(=C)CCC12 (stereo unspecified),TGI,786-0 renal,26.7 µM
same,TGI,NCI-H23 lung,27 µM
same,TGI,CAKI-1 renal,19.7 µM
same,TGI,A498 renal,17.5 µM
same,TGI,SN12C renal,18.1 µM
same,TGI,HCT-116 colon,14.5 µM
same,TGI,A549 NSCLC,32.2 µM
COc1ccc2c(c1)C(=O)c1ccc(OC)cc1C2=S,TGI,786-0 renal,> 100 µM
same,TGI,NCI-H23 lung,> 100 µM
same,TGI,A498 renal,> 100 µM
same,TGI,SN12C renal,> 100 µM
same,TGI,NCI-H522 lung,> 100 µM
same,TGI,HCT-116 colon,> 100 µM
same,TGI,A549 NSCLC,> 100 µM
same,TGI,LOX IMVI melanoma,> 100 µM
NNC(=O)C1CCC(=O)N1S(=O)(=O)c1ccccc1 (stereo unspecified),TGI,786-0 renal,> 100 µM
same,TGI,NCI-H23 lung,> 100 µM
same,TGI,CAKI-1 renal,> 100 µM
same,TGI,SN12C renal,> 100 µM
same,TGI,NCI-H522 lung,> 100 µM
same,TGI,HCT-116 colon,> 100 µM
same,TGI,A549 NSCLC,> 100 µM
same,TGI,LOX IMVI melanoma,> 100 µM
O=C1C(c2ccccc2)=C(O)c2cccc3cccc1c23,TGI,786-0 renal,> 100 µM
same,TGI,NCI-H23 lung,> 100 µM
same,TGI,CAKI-1 renal,> 100 µM
same,TGI,A498 renal,> 100 µM
same,TGI,SN12C renal,> 100 µM
same,TGI,NCI-H522 lung,> 100 µM
same,TGI,HCT-116 colon,> 100 µM
same,TGI,A549 NSCLC,> 100 µM
same,TGI,LOX IMVI melanoma,> 100 µM
O=C1CCCCC1S(=O)(=O)c1ccccc1 (stereo unspecified),TGI,786-0 renal,> 100 µM
same,TGI,NCI-H23 lung,> 100 µM
same,TGI,CAKI-1 renal,> 100 µM
same,TGI,A498 renal,> 100 µM
same,TGI,SN12C renal,> 100 µM
same,TGI,NCI-H522 lung,> 100 µM
same,TGI,HCT-116 colon,> 100 µM
same,TGI,A549 NSCLC,> 100 µM
same,TGI,LOX IMVI melanoma,> 100 µM
OC(CCNC12CC3CC(CC(C3)C1)C2)c1ccccc1 (stereo unspecified),TGI,786-0 renal,> 100 µM
same,TGI,NCI-H23 lung,> 100 µM
same,TGI,CAKI-1 renal,> 100 µM
same,TGI,A498 renal,> 100 µM
same,TGI,SN12C renal,> 100 µM
same,TGI,NCI-H522 lung,> 100 µM
same,TGI,HCT-116 colon,> 100 µM
same,TGI,A549 NSCLC,> 100 µM
CC(=O)[CH-]C(=O)c1ccccc1.CC(=O)[CH-]C(=O)c1ccccc1.CC[O-].CC[O-].[Hf+4],GI50,786-0 renal,> 100 µM
same,TGI,786-0 renal,> 100 µM
same,GI50,NCI-H23 lung,> 100 µM
same,TGI,NCI-H23 lung,> 100 µM
same,GI50,CAKI-1 renal,> 100 µM
same,TGI,CAKI-1 renal,> 100 µM
same,GI50,A498 renal,> 100 µM
same,TGI,A498 renal,> 100 µM
same,GI50,SN12C renal,> 100 µM
same,TGI,SN12C renal,> 100 µM
same,GI50,NCI-H522 lung,> 100 µM
same,TGI,NCI-H522 lung,> 100 µM
same,GI50,HCT-116 colon,> 100 µM
same,TGI,HCT-116 colon,> 100 µM
same,GI50,A549 NSCLC,> 100 µM
same,TGI,A549 NSCLC,> 100 µM
same,GI50,LOX IMVI melanoma,> 100 µM
same,TGI,LOX IMVI melanoma,> 100 µM
COc1ccc(/C=C/c2cc(OC)c(OC)c(OC)c2)cc1,TGI,786-0 renal,> 100 µM
same,TGI,NCI-H23 lung,> 81.5 µM
same,TGI,CAKI-1 renal,98.4 µM
same,TGI,A498 renal,> 100 µM
same,TGI,SN12C renal,> 100 µM
same,GI50,NCI-H522 lung,14.1 µM
same,TGI,NCI-H522 lung,40.9 µM
same,TGI,HCT-116 colon,> 77.2 µM
same,TGI,A549 NSCLC,> 100 µM
same,TGI,LOX IMVI melanoma,> 100 µM
NC(=O)CN(CC(N)=O)C(N)=O,TGI,786-0 renal,> 100 µM
same,TGI,NCI-H23 lung,> 100 µM
same,TGI,CAKI-1 renal,> 100 µM
same,TGI,A498 renal,> 100 µM
same,TGI,NCI-H522 lung,> 100 µM
same,TGI,HCT-116 colon,> 100 µM
same,TGI,A549 NSCLC,> 100 µM
same,TGI,LOX IMVI melanoma,> 100 µM
O=C(O)CC[C@H](NC(=O)c1ccc(-n2nc3ccc(O)cc3nc2=O)cc1)C(=O)O,TGI,786-0 renal,> 100 µM
same,TGI,NCI-H23 lung,> 100 µM
same,TGI,A498 renal,> 100 µM
same,TGI,SN12C renal,> 100 µM
same,TGI,NCI-H522 lung,> 100 µM
same,TGI,HCT-116 colon,> 100 µM
same,TGI,A549 NSCLC,> 100 µM
COc1c(O)c2c3c(cc(C)cc3c1C(C)C)OC2,TGI,786-0 renal,> 100 µM
same,TGI,NCI-H23 lung,> 100 µM
same,TGI,SN12C renal,> 100 µM
same,TGI,NCI-H522 lung,> 100 µM
same,TGI,HCT-116 colon,> 100 µM
same,TGI,A549 NSCLC,> 100 µM
same,TGI,LOX IMVI melanoma,> 100 µM
O=C1C=CC(=O)C2=C1[C@@H](O)C1CC=CC3C(=O)O[C@@H]2C31 (stereo partly specified),TGI,786-0 renal,> 55.2 µM
same,TGI,NCI-H23 lung,> 68 µM
same,TGI,CAKI-1 renal,35.2 µM
same,TGI,A498 renal,> 100 µM
same,TGI,SN12C renal,37.2 µM
same,TGI,NCI-H522 lung,34.8 µM
same,TGI,HCT-116 colon,39.7 µM
same,TGI,A549 NSCLC,> 100 µM
same,TGI,LOX IMVI melanoma,50.1 µM
COc1cc2ccnc3c2c(c1OC)-c1coc(SC)c1-3,TGI,786-0 renal,> 100 µM
same,TGI,CAKI-1 renal,> 100 µM
same,TGI,A498 renal,> 100 µM
same,TGI,SN12C renal,> 100 µM
same,TGI,NCI-H522 lung,> 100 µM
same,TGI,HCT-116 colon,> 100 µM
same,TGI,A549 NSCLC,> 100 µM
same,TGI,LOX IMVI melanoma,> 100 µM
Cc1nc(Nc2ccccc2)sc1C(=O)CC(=O)C(=O)Nc1c(C(C)C)cccc1C(C)C,TGI,786-0 renal,> 100 µM
same,TGI,NCI-H23 lung,> 100 µM
same,TGI,CAKI-1 renal,> 100 µM
same,TGI,SN12C renal,> 100 µM
same,TGI,NCI-H522 lung,> 100 µM
same,TGI,HCT-116 colon,> 100 µM
same,TGI,A549 NSCLC,> 100 µM
same,TGI,LOX IMVI melanoma,> 100 µM
CCOc1cc2c(C(=O)CC)c(O)ccc2o1,TGI,786-0 renal,> 100 µM
same,TGI,NCI-H23 lung,> 100 µM
same,TGI,CAKI-1 renal,> 100 µM
same,TGI,A498 renal,> 94.4 µM
same,TGI,SN12C renal,> 100 µM
same,TGI,NCI-H522 lung,> 100 µM
same,TGI,HCT-116 colon,> 72.5 µM
same,TGI,A549 NSCLC,> 100 µM
same,TGI,LOX IMVI melanoma,> 100 µM
CCOC(C[C@H](O[Si](C)(C)C(C)(C)C)[C@H]1COC(=S)S1)OCC,TGI,786-0 renal,> 100 µM
same,TGI,NCI-H23 lung,> 100 µM
same,TGI,SN12C renal,> 100 µM
same,TGI,NCI-H522 lung,55.6 µM
same,TGI,HCT-116 colon,> 100 µM
same,TGI,A549 NSCLC,> 100 µM
same,TGI,LOX IMVI melanoma,> 100 µM
CCCCCCC[CH2][Sn]([CH2]CCCCCCC)([O]c1cccc2cccnc12)[O]c1cccc2cccnc12,GI50,786-0 renal,1.49 µM
same,TGI,786-0 renal,2.84 µM
same,GI50,CAKI-1 renal,2.54 µM
same,TGI,CAKI-1 renal,8.41 µM
same,GI50,A498 renal,2.62 µM
same,TGI,A498 renal,5.85 µM
same,GI50,SN12C renal,1.96 µM
same,TGI,SN12C renal,4.32 µM
same,GI50,NCI-H522 lung,0.605 µM
same,TGI,NCI-H522 lung,3.86 µM
same,GI50,HCT-116 colon,2.37 µM
same,TGI,HCT-116 colon,10.1 µM
same,GI50,A549 NSCLC,3.18 µM
same,TGI,A549 NSCLC,12 µM
same,GI50,LOX IMVI melanoma,1.77 µM
same,TGI,LOX IMVI melanoma,3.64 µM
